Assay results reported in the SangsterLogP compilation.

| SMILES | logP |
| --- | --- |
| O=C1c2ccccc2C(=O)C1c1ccc(Cl)cc1 | 3.61 |
| COc1ccc(C2C(=O)c3ccccc3C2=O)cc1 | 2.88 |
| Cc1ccc(C2C(=O)c3ccccc3C2=O)cc1 | 3.46 |
| CCCCCCC(=O)O | 2.42 |
| CCC(C)(C)c1ccc(CC(=O)O)cc1 | 3.48 |
| O=C1c2ccccc2C(=O)C1c1ccc(C(F)(F)F)cc1 | 3.78 |
| CCCCCCCCc1ccc(C2C(=O)c3ccccc3C2=O)cc1 | 6.93 |
| Cc1cccc(C2C(=O)c3ccccc3C2=O)c1 | 3.46 |
| Cc1cc(C)c(C(=O)O)c(C)c1 | 3.69 |
| O=C1c2ccccc2C(=O)C1c1cccc(C(F)(F)F)c1 | 3.78 |
| CCCOc1ccc(CC(=O)O)cc1 | 2.31 |
| COc1cc(OC)cc(C2C(=O)c3ccccc3C2=O)c1 | 2.86 |
| CC(C)(C)c1ccc(C2C(=O)c3ccccc3C2=O)cc1 | 4.88 |
| CCCCCc1ccc(CC(=O)O)cc1 | 3.75 |
| Cc1cc(C)c(C)c(C(=O)O)c1C | 4.19 |
| CC(C)c1cc(C(C)C)cc(C2C(=O)c3ccccc3C2=O)c1 | 5.96 |
| O=C(O)Cc1ccc(C2CCCC2)cc1 | 3.44 |
| O=[N+]([O-])c1cc(Cl)c(O)c(Cl)c1 | 2.96 |
| O=C1c2ccccc2C(=O)C1c1cccc(Cl)c1 | 3.61 |
| CCCCCCCCCCC(=O)O | 4.42 |
| CC(C)c1cccc(C2C(=O)c3ccccc3C2=O)c1 | 4.43 |
| O=C(O)Cc1ccc([N+](=O)[O-])cc1 | 1.54 |
| CCc1cc(CC)cc(C2C(=O)c3ccccc3C2=O)c1 | 4.94 |

| SMILES | logP |
| --- | --- |
| COc1cccc(C2C(=O)c3ccccc3C2=O)c1 | 2.88 |
| O=C(O)Cc1ccc(C2CCCCC2)cc1 | 3.81 |
| CCCCc1ccc(CC(=O)O)cc1 | 3.25 |
| CC(C)c1ccc(C2C(=O)c3ccccc3C2=O)cc1 | 4.43 |
| CCc1cccc(C2C(=O)c3ccccc3C2=O)c1 | 3.92 |
| O=C(O)Cc1ccc(I)cc1 | 2.53 |
| CCCc1ccc(CC(=O)O)cc1 | 2.75 |
| CC(C)(C)c1cccc(C2C(=O)c3ccccc3C2=O)c1 | 4.88 |
| Cc1ccc(C(=O)O)c(C)c1 | 3.01 |
| O=C1c2ccccc2C(=O)C1c1cc(Cl)cc(Cl)c1 | 4.32 |
| O=C(O)c1cc([N+](=O)[O-])ccc1O | 1.98 |
| CCCCCCc1ccc(CC(=O)O)cc1 | 4.25 |
| CCCCCCCCC(=O)O | 3.42 |
| O=C1c2ccccc2C(=O)C1c1ccc(Br)cc1 | 3.76 |
| O=C(O)CCCCCC(=O)O | 0.61 |
| O=C(O)Cc1ccccc1 | 1.41 |
| Cc1cc(C)cc(C2C(=O)c3ccccc3C2=O)c1 | 4.02 |
| O=C1c2ccccc2C(=O)C1c1ccc(-c2ccccc2)cc1 | 4.79 |
| CC(C)(C)c1cc(C2C(=O)c3ccccc3C2=O)cc(C(C)(C)C)c1 | 6.86 |
| CCCCCCCCCCCC(=O)O | 4.92 |
| CCc1ccc(C2C(=O)c3ccccc3C2=O)cc1 | 3.92 |
| O=[N+]([O-])c1cc(Br)c(O)c(Br)c1 | 3.07 |
